Test systems include HCT-15 colon; 786-0 renal; OVCAR-4 ovarian; IGROV1 ovarian; SK-MEL-5 melanoma; U251 CNS; HL-60(TB) leukemia; A498 renal; UACC-62 melanoma; SNB-19 CNS.
Holding throughout (assay): growth of human tumour cells (NCI), 48 h

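Following 48 hours of exposure in 96-well plates, responses at five concentrations were used to interpolate endpoints linearly. GI50 = concentration required for 50% inhibition of growth. TGI marks complete inhibition of growth.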

`CC(C)n1nc(-c2cc3cc(O)ccc3[nH]2)c2c(N)ncnc21`: the GI50 is 0.342 µM in the assay on HCT-15 colon; 0.294 µM with 786-0 renal; 0.0827 µM in the assay on OVCAR-4 ovarian; 0.0945 µM in the assay with IGROV1 ovarian; 0.171 µM in the assay with SK-MEL-5 melanoma; 0.565 µM in the assay with U251 CNS. For the same compound, the GI50 with HL-60(TB) leukemia was 1.26 µM; in the assay on A498 renal, 0.0194 µM; in the assay with UACC-62 melanoma, 0.161 µM; in the assay on SNB-19 CNS, 1.52 µM. Also, the TGI is 13.9 µM in the assay on HCT-15 colon; 2.88 µM in the assay on 786-0 renal; 0.923 µM with OVCAR-4 ovarian; 0.774 µM in the assay on IGROV1 ovarian; 1.43 µM in the assay with SK-MEL-5 melanoma; 10.9 µM with U251 CNS. The TGI was found to be 5.77 µM in the assay on HL-60(TB) leukemia, 0.123 µM with A498 renal, 0.962 µM in the assay on UACC-62 melanoma and 17.9 µM with SNB-19 CNS.

As to `COc1ccc(Cn2cc3c(c2-c2ccccc2)CC(C)(C)c2cnoc2-3)cc1`, the GI50 in the assay with HCT-15 colon is 1.02 µM; in the assay with 786-0 renal, 4.1 µM; in the assay on OVCAR-4 ovarian, 5.23 µM; in the assay with IGROV1 ovarian it was 2.3 µM; in the assay with SK-MEL-5 melanoma it was 1.6 µM; in the assay on U251 CNS, 2.99 µM. Besides, the GI50 was 0.82 µM in the assay with HL-60(TB) leukemia, 1.4 µM in the assay on A498 renal, 0.958 µM with UACC-62 melanoma and 4.96 µM in the assay on SNB-19 CNS. In addition, the TGI in the assay with HCT-15 colon was over 100 µM; in the assay with 786-0 renal, over 100 µM; with OVCAR-4 ovarian, over 100 µM; in the assay with IGROV1 ovarian, over 100 µM; with SK-MEL-5 melanoma, 9.61 µM; in the assay on U251 CNS, over 100 µM. In addition, the TGI with HL-60(TB) leukemia is 4.29 µM; in the assay on A498 renal, 7.72 µM; with UACC-62 melanoma it was over 100 µM; in the assay with SNB-19 CNS, over 100 µM.

As for `NS(=O)(=O)c1ccc(N=Nc2c(O)[nH]c3ccc(-c4cnco4)cc23)cc1`, the GI50 in the assay on HCT-15 colon, with 786-0 renal, with OVCAR-4 ovarian, in the assay on IGROV1 ovarian, in the assay on SK-MEL-5 melanoma and in the assay on U251 CNS was over 25 µM throughout. The GI50 in the assay with HL-60(TB) leukemia, in the assay with A498 renal, in the assay with UACC-62 melanoma and with SNB-19 CNS was over 25 µM in each case. Also, the TGI with HCT-15 colon, with 786-0 renal, in the assay with OVCAR-4 ovarian, with IGROV1 ovarian, in the assay on SK-MEL-5 melanoma and with U251 CNS was over 25 µM in each case. Besides, the TGI with HL-60(TB) leukemia, with A498 renal, with UACC-62 melanoma and in the assay with SNB-19 CNS was over 25 µM in each case.

Consider `CCOc1ccccc1NC(=O)CC(C(=O)OC)C(=O)C(=O)OC` (stereo not given), for which the TGI with HCT-15 colon, in the assay with 786-0 renal, in the assay on OVCAR-4 ovarian, in the assay with IGROV1 ovarian, with SK-MEL-5 melanoma and with U251 CNS was over 100 µM in each case. Also, the TGI in the assay with HL-60(TB) leukemia, in the assay with A498 renal, in the assay on UACC-62 melanoma and with SNB-19 CNS was over 100 µM each time.

For the compound `N#CCN1C(=O)c2cccc3cc([N+](=O)[O-])cc(c23)C1=O`, the TGI in the assay with HCT-15 colon, with 786-0 renal, with OVCAR-4 ovarian, with IGROV1 ovarian, with SK-MEL-5 melanoma and with U251 CNS was over 100 µM in each case. Besides, the TGI with HL-60(TB) leukemia was 56.4 µM; in the assay with A498 renal it was over 100 µM; in the assay with UACC-62 melanoma, 60.5 µM; in the assay with SNB-19 CNS it was over 100 µM.

On to `O=C1OC(c2ccccc2)=N/C1=C\c1cccc2ccccc12`, for which the TGI in the assay with HCT-15 colon, in the assay with 786-0 renal, in the assay with OVCAR-4 ovarian, in the assay on IGROV1 ovarian, in the assay on SK-MEL-5 melanoma and in the assay on U251 CNS was over 100 µM each time. Further, the TGI with HL-60(TB) leukemia, in the assay on A498 renal, in the assay on UACC-62 melanoma and with SNB-19 CNS was over 100 µM throughout.

With `CCCCCCCC/C=C/CCCCCCCC(=O)OC[C@H]1O[C@@H](n2ccc(N)nc2=O)C(F)(F)[C@@H]1O`, the GI50 with HCT-15 colon was 0.117 µM; in the assay with 786-0 renal it was under 0.0139 µM; in the assay on OVCAR-4 ovarian, over 100 µM; with IGROV1 ovarian, 19 µM; in the assay on SK-MEL-5 melanoma it was 0.0327 µM; in the assay on U251 CNS, under 0.016 µM. The GI50 in the assay on HL-60(TB) leukemia was 0.0217 µM; in the assay with A498 renal, under 0.0218 µM; in the assay on UACC-62 melanoma it was 0.0331 µM; in the assay on SNB-19 CNS it was under 0.0419 µM. In addition, the TGI in the assay on HCT-15 colon is over 100 µM; in the assay on 786-0 renal, 2.56 µM; with OVCAR-4 ovarian, over 100 µM; with IGROV1 ovarian, over 100 µM; in the assay on SK-MEL-5 melanoma it was over 100 µM; with U251 CNS, 25.3 µM. The TGI in the assay on HL-60(TB) leukemia was 28 µM; in the assay on A498 renal, 6.32 µM; in the assay with UACC-62 melanoma it was over 100 µM; with SNB-19 CNS it was over 43.5 µM.

Turning to `O=C(NC1=CC(=O)c2ccccc2C1=O)c1ccccc1`, the GI50 in the assay with HCT-15 colon was 0.549 µM; in the assay on 786-0 renal, 3.01 µM; with OVCAR-4 ovarian, 1.04 µM; in the assay with IGROV1 ovarian, 1.26 µM; in the assay with SK-MEL-5 melanoma, 0.399 µM; in the assay with U251 CNS, 0.42 µM. Also, the GI50 is 0.639 µM in the assay on HL-60(TB) leukemia, 4.46 µM in the assay on A498 renal, 0.24 µM with UACC-62 melanoma and 2.9 µM with SNB-19 CNS. In addition, the TGI in the assay with HCT-15 colon was 5.6 µM; in the assay with 786-0 renal, 17.2 µM; in the assay with OVCAR-4 ovarian it was 2.26 µM; in the assay with IGROV1 ovarian, 2.85 µM; in the assay with SK-MEL-5 melanoma, 1.48 µM; in the assay with U251 CNS, 11.6 µM. In addition, the TGI in the assay on HL-60(TB) leukemia came to 2.53 µM; in the assay with A498 renal, 17.5 µM; in the assay with UACC-62 melanoma, 0.799 µM; in the assay with SNB-19 CNS, 16.4 µM.

The values are drawn from PubChem BioAssay (NCI).
